Test results taken from patent US20230348376A1 (TEIJIN PHARMA LIMITED, priority 2020, published 2023).

What was measured:
[1] = tested on: rat oligodendrocyte progenitor cells; assay: Promotive activity of rat oligodendrocyte progenitor cell differentiation-2 (immunostaining of MBP); type: cell-based; conditions: Test 3; vitamin D derivative 2 μM, T3 30 nM; 4 days
Method in brief: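 Rat OPCs prepared by shaking in separation medium about 22 h at 37 °C, 200 rpm, and collecting the supernatant.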

[2] = tested on: oligodendrocyte progenitor cells derived from VDR knockout mice; assay: Oligodendrocyte progenitor cell differentiation using VDR knockout mice (MBP immunostaining); type: cell-based; conditions: 1000 nM, 4 days, VDR KO mouse OPC
Protocol: The promotive activity of oligodendrocyte progenitor cell (OPC) differentiation of the vitamin D derivatives was evaluated by using oligodendrocyte progenitor cells derived from VDR knockout mice. (1) Collection of Neural Stem Cells from VDR KO Mouse […]
The oligodendrocyte progenitor cells derived from VDR KO mouse prepared were suspended in oligodendrocyte progenitor cell differentiation medium (2% B27 (Thermo Fisher Scientific #17504-044)/1% penicillin-streptomycin (Invitrogen #15140-122)/10 ng/mL CNTF (PeproTech #AF-450-13)/DMEM/F-12, no glutamine (Gibco #21331-020)), and were seeded on a 96-well plate coated with poly-L-ornithine (FUJIFILM Wako Pure Chemical Corporation #163-27421) under the condition of 2.0×10^4 cells/well. […] Subsequently, images of each well were acquired using a fluorescence microscope (KEYENCE CORPORATION #BZ-X800), the number of MBP-positive cells and Hoechst 33342-positive cells (total cells) were measured using an image analysis application (KEYENCE CORPORATION #BZ-X800 Analyzer), and then the ratio of number of MBP-positive cells/number of Hoechst33342-positive cells (total cells) was calculated, and then the ratio of those to the DMSO group was calculated as a result. […]

[3] = Evaluation of calcium increasing action in normal mice (serum calcium); type: in vivo, mouse; conditions: for Serum calcium concentration: repeated oral once a day, 2 weeks, C57BL/6J mice; for Calcium concentration Fluctuation range: vs vehicle 8.9 mg/dL
Protocol: After acclimatizing C57BL/6J mice (7 weeks old, male) for 1 week, the mice were divided into groups of 5 mice based on the body weight, and administration of the compound or vehicle was started. The administration solution used was a compound (in ethanol) or ethanol diluted 100-fold with 0.1% Trion X-100 (SIGMA #X100-100ML)/saline, and the repeated oral administration at once a day was performed. After administration of 2 weeks, euthanasia was performed by collecting all blood under general anesthesia.

[4] = Evaluation of brain penetration in mice (blood and brain concentration at brain Cmax); type: in vivo, mouse; conditions: 0.2 mg/kg single oral dose, C57BL/6J mice
Method in brief: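 Male C57BL/6J mice (8 weeks, n=3) dosed orally once at 1 […] mg/kg; plasma and brain collected at 0.25, 0.5, 1, 2, 4 and 8 h. Compound extracted with acetonitrile from brain homogenate and plasma, quantified by LC/MS/MS.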

Question: For `C[C@H](CN1CCOC[C@H]1C)[C@H]1CC[C@H]2/C(=C/C=C3C[C@@H](O)C[C@H](O)C3)CCC[C@]12C` [Compound G005, (1R,3R)-5-(2-((1R,3aS,7aR,E)-7a-methyl-1-((S)-1-((R)-3-methylmorpholino)propan-2-yl)octahydro-4H-inden-4-ylidene)ethylidene)cyclohexane-1,3-diol], which “Mean (number of MBP-positive cells/number of Hoechst33342-positive cells)” value [1] is on record?
Answer: 0.34

Question: And the “Mean (ratio MBP-positive cells/Hoechst33342-positive cells, relative to the DMSO group = 100.0)” value [2]?
Answer: 215.1

Question: And the Serum calcium concentration ([3]; 20 μg/kg)?
Answer: 9.1 mg/dL

Question: And the “Calcium concentration Fluctuation range” value ([3]; 20 μg/kg)?
Answer: 0.2 mg/dL

Question: And the Serum calcium concentration ([3]; 60 μg/kg)?
Answer: 9.1 mg/dL

Question: And the “Calcium concentration Fluctuation range” value ([3]; 60 μg/kg)?
Answer: 0.2 mg/dL

Question: And the Serum calcium concentration ([3]; 200 μg/kg)?
Answer: 9.0 mg/dL

Question: And the “Calcium concentration Fluctuation range” value ([3]; 200 μg/kg)?
Answer: 0.1 mg/dL

Question: And the “Concentration in blood at brain Cmax” value ([4]; n=3)?
Answer: 84.1 ± 9.7 nM

Question: What about the “Concentration in brain at brain Cmax” value ([4]; n=3) of the same molecule?
Answer: 140.8 ± 17.6 pmol/g

Question: What about the Kp ([4]; male, C57BL/6J, mouse, brain/plasma, po, 0.2 mg/kg, read-out: Concentration ratio in brain/in blood at brain Cmax) of the same molecule?
Answer: 1.67
